Measured values taken from ChEMBL document CHEMBL3352403, “New class of methyl tetrazole based hybrid of (Z)-5-benzylidene-2-(piperazin-1-yl)thiazol-4(%H)-one as potent antitubercular agents” (Bioorg Med Chem Lett, 2014).
In brackets after ≈: the same amount, converted by molar mass. Several values for one entry are separate records, joined by “and”; a condition that tells them apart may be missing. Identical values can stand only once.

Experiments:
[1] = system: Mycobacterium tuberculosis; test: Antitubercular activity against Mycobacterium tuberculosis H37Rv after 4 weeks; assay type: functional; conditions: 672 h
[2] = Cytotoxicity against african green monkey Vero cells after 24 hrs by MTS assay; assay type: cell-based; conditions: chlorocebus sabaeus
[3] = Cytotoxicity against mouse MBMDMphi cells after 48 hrs by MTS assay; assay type: cell-based
[4] = system: Mycobacterium tuberculosis; test: Ratio of ethambutol MIC to compound MIC for Mycobacterium tuberculosis H37Rv after 4 weeks; assay type: functional

CC(C)(C)n1nnnc1C(c1ccccc1)N1CCN(C2=NC(=O)/C(=C/c3ccccc3)S2)CC1 (centres undefined)
MIC [1]: > 12.5 µg/mL

CC(C)(C)n1nnnc1C(c1ccccc1F)N1CCN(C2=NC(=O)/C(=C/c3ccccc3)S2)CC1 (centres undefined)
CC50 at 24 h [2]: > 100 µM | CC50 at 48 h [3]: > 100 µM | MIC [1]: 6.25 µg/mL and 12.3 µM

CC(C)(C)n1nnnc1C(c1ccc(F)cc1)N1CCN(C2=NC(=O)/C(=C/c3ccccc3)S2)CC1 (centres undefined)
CC50 at 24 h [2]: > 100 µM | Ratio [4]: 3 | CC50 at 48 h [3]: > 100 µM | MIC [1]: 1.56 µg/mL and 3.08 µM

CC(C)(C)n1nnnc1C(c1ccccc1Cl)N1CCN(C2=NC(=O)/C(=C/c3ccccc3)S2)CC1 (centres undefined)
CC50 at 24 h [2]: > 100 µM | CC50 at 48 h [3]: > 100 µM | MIC [1]: 12.5 µg/mL and 23.9 µM

CC(C)(C)n1nnnc1C(c1ccc(Cl)cc1)N1CCN(C2=NC(=O)/C(=C/c3ccccc3)S2)CC1 (centres undefined)
CC50 at 24 h [2]: > 100 µM | CC50 at 48 h [3]: > 100 µM | MIC [1]: 6.25 µg/mL and 11.9 µM

CC(C)c1ccc(C(c2nnnn2C(C)(C)C)N2CCN(C3=NC(=O)/C(=C/c4ccccc4)S3)CC2)cc1 (centres undefined)
CC50 at 24 h [2]: > 100 µM | CC50 at 48 h [3]: > 100 µM | MIC [1]: > 12.5 µg/mL

COc1ccc(C(c2nnnn2C(C)(C)C)N2CCN(C3=NC(=O)/C(=C/c4ccccc4)S3)CC2)cc1 (centres undefined)
CC50 at 24 h [2]: > 100 µM | Ratio [4]: 3 | CC50 at 48 h [3]: > 100 µM | MIC [1]: 1.56 µg/mL and 3.01 µM

COc1ccc(C(c2nnnn2C(C)(C)C)N2CCN(C3=NC(=O)/C(=C/c4ccccc4)S3)CC2)cc1OC (centres undefined)
CC50 at 24 h [2]: > 100 µM | CC50 at 48 h [3]: > 100 µM | MIC [1]: 6.25 µg/mL and 11.4 µM

COc1cc(C(c2nnnn2C(C)(C)C)N2CCN(C3=NC(=O)/C(=C/c4ccccc4)S3)CC2)cc(OC)c1OC (centres undefined)
CC50 at 24 h [2]: > 100 µM | CC50 at 48 h [3]: > 100 µM | MIC [1]: 6.25 µg/mL and 10.8 µM

CC(C)(C)n1nnnc1C(c1ccncc1)N1CCN(C2=NC(=O)/C(=C/c3ccccc3)S2)CC1 (centres undefined)
MIC [1]: 6.25 µg/mL and 12.8 µM

CC(C)(C)n1nnnc1C(c1cccnc1)N1CCN(C2=NC(=O)/C(=C/c3ccccc3)S2)CC1 (centres undefined)
CC50 at 24 h [2]: > 100 µM | CC50 at 48 h [3]: > 100 µM | MIC [1]: 6.25 µg/mL and 12.8 µM

CC(C)(C)n1nnnc1C(c1ccoc1)N1CCN(C2=NC(=O)/C(=C/c3ccccc3)S2)CC1 (centres undefined)
CC50 at 24 h [2]: > 100 µM | CC50 at 48 h [3]: 45.9 µM | MIC [1]: 6.25 µg/mL and 13.1 µM

O=C1N=C(N2CCN(C(c3ccccc3)c3nnnn3C3CCCCC3)CC2)S/C1=C\c1ccccc1 (centres undefined)
CC50 at 24 h [2]: > 100 µM | CC50 at 48 h [3]: > 100 µM | MIC [1]: 6.25 µg/mL and 12.1 µM

O=C1N=C(N2CCN(C(c3ccccc3F)c3nnnn3C3CCCCC3)CC2)S/C1=C\c1ccccc1 (centres undefined)
MIC [1]: 12.5 µg/mL (≈ 23.5 µM)

O=C1N=C(N2CCN(C(c3ccc(F)cc3)c3nnnn3C3CCCCC3)CC2)S/C1=C\c1ccccc1 (centres undefined)
CC50 at 24 h [2]: > 100 µM | CC50 at 48 h [3]: > 100 µM | MIC [1]: 6.25 µg/mL and 11.7 µM

O=C1N=C(N2CCN(C(c3ccccc3Cl)c3nnnn3C3CCCCC3)CC2)S/C1=C\c1ccccc1 (centres undefined)
CC50 at 24 h [2]: > 100 µM | CC50 at 48 h [3]: > 100 µM | MIC [1]: 6.25 µg/mL and 11.4 µM

O=C1N=C(N2CCN(C(c3ccc(Cl)cc3)c3nnnn3C3CCCCC3)CC2)S/C1=C\c1ccccc1 (centres undefined)
MIC [1]: 12.5 µg/mL and 22.8 µM

CC(C)c1ccc(C(c2nnnn2C2CCCCC2)N2CCN(C3=NC(=O)/C(=C/c4ccccc4)S3)CC2)cc1 (centres undefined)
CC50 at 24 h [2]: > 100 µM | CC50 at 48 h [3]: > 100 µM | MIC [1]: 6.25 µg/mL and 11.2 µM

COc1ccc(C(c2nnnn2C2CCCCC2)N2CCN(C3=NC(=O)/C(=C/c4ccccc4)S3)CC2)cc1 (centres undefined)
MIC [1]: 6.25 µg/mL and 11.5 µM

COc1ccc(C(c2nnnn2C2CCCCC2)N2CCN(C3=NC(=O)/C(=C/c4ccccc4)S3)CC2)cc1OC (centres undefined)
MIC [1]: 6.25 µg/mL and 10.9 µM

COc1cc(C(c2nnnn2C2CCCCC2)N2CCN(C3=NC(=O)/C(=C/c4ccccc4)S3)CC2)cc(OC)c1OC (centres undefined)
CC50 at 24 h [2]: > 100 µM | CC50 at 48 h [3]: > 100 µM | MIC [1]: 6.25 µg/mL and 10.3 µM

O=C1N=C(N2CCN(C(c3ccncc3)c3nnnn3C3CCCCC3)CC2)S/C1=C\c1ccccc1 (centres undefined)
MIC [1]: 6.25 µg/mL and 12.1 µM

O=C1N=C(N2CCN(C(c3cccnc3)c3nnnn3C3CCCCC3)CC2)S/C1=C\c1ccccc1 (centres undefined)
MIC [1]: 6.25 µg/mL and 12.1 µM

O=C1N=C(N2CCN(C(c3ccoc3)c3nnnn3C3CCCCC3)CC2)S/C1=C\c1ccccc1 (centres undefined)
MIC [1]: 6.25 µg/mL and 12.4 µM

CC[C@@H](CO)NCCN[C@@H](CC)CO [ETHAMBUTOL]
MIC [1]: 2 µg/mL and 9.78 µM

NNC(=O)c1ccncc1 [ISONIAZID]
MIC [1]: 0.02 µg/mL and 0.14 µM

NC(=O)c1cnccn1 [PYRAZINAMIDE]
MIC [1]: 12.5 µg/mL and 102 µM
